Source: patent publication US20210380595A1 (ARAXES PHARMA LLC, priority 2018, published 2021)

Biological target: T1, KRAS G12C 1-169, his-tagged protein, GDP-loaded (Homo sapiens, UniProt P01116, G12C)
T1 construct: KRAS G12C 1-169, his-tagged protein, GDP-loaded
Test: Biochemical assay: covalent modification of KRAS G12C measured by mass spectrometry (RapidFire/TOF or Q-Exactive); further: time not given here
Assay type: binding
Conditions: tested at 32 μM
Summary of the method: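 GDP-loaded KRAS G12C 1-169 (his-tagged, 2 μM or 0.5 μM in 20 mM Hepes, 150 mM NaCl, 1 mM MgCl2) reacted with compound at 32 μM or 8 μM final, then quenched with formic acid. Intact-protein LC-MS (RapidFire/TOF or Q-Exactive) with charge-envelope deconvolution; % modification from modified vs unmodified peak intensities.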

Row | SMILES | Bind %
1 | C=CC(=O)N1CC2(CCN(c3cc(OCCCN(C)C)c(Cl)c(-c4c(C)ccc5[nH]ncc45)c3C#N)CC2)C1 [Compound I-125, 6-(2-acryloyl-2,7-diazaspiro[3.5]nonan-7-yl)-3-chloro-4-(3-(dimethylamino)propoxy)-2-(5-methyl-1H-indazol-4-yl)benzonitrile] | ++ (++ indicates binding activity from 50 to 75%)
2 | C=CC(=O)N1CC2(CCN(c3cc(OC[C@H]4CCCN4C)c(F)c(-c4c(C)ccc5[nH]ncc45)c3C#N)CC2)C1 [Compound I-127, 6-(2-acryloyl-2,7-diazaspiro[3.5]nonan-7-yl)-3-fluoro-2-(5-methyl-1H-indazol-4-yl)-4-(((R)-1-methylpyrrolidin-2-yl)methoxy) benzonitrile] | ++ (++ indicates binding activity from 50 to 75%)
3 | C=CC(=O)N1CC2(CCN(c3cc(OC[C@@H]4CCCN4C)c(F)c(-c4c(C)ccc5[nH]ncc45)c3C#N)CC2)C1 [Compound I-128, 6-(2-acryloyl-2,7-diazaspiro[3.5]nonan-7-yl)-3-fluoro-2-(5-methyl-1H-indazol-4-yl)-4-(((S)-1-methylpyrrolidin-2-yl)methoxy) benzonitrile] | + (+ indicates binding activity greater than 0% and up to 50%)
4 | C=CC(=O)N1CC2(CCN(c3ccc(OCC(F)(F)F)c(-c4c(C)ccc5[nH]ncc45)c3C#N)CC2)C1 [Compound I-130, 6-(2-acryloyl-2,7-diazaspiro[3.5]nonan-7-yl)-2-(5-methyl-1H-indazol-4-yl)-3-(2,2,2-trifluoroethoxy) benzonitrile] | + (+ indicates binding activity greater than 0% and up to 50%)
5 | C=CC(=O)N1CC2(CCN(c3cc(N(C)CCN4CCCC4)c(F)c(-c4c(C)ccc5[nH]ncc45)c3C#N)CC2)C1 [Compound I-131, 6-(2-acryloyl-2,7-diazaspiro[3.5]nonan-7-yl)-3-fluoro-4-(methyl(2-(pyrrolidin-1-yl)ethyl)amino)-2-(5-methyl-1H-indazol-4-yl)benzonitrile] | + (+ indicates binding activity greater than 0% and up to 50%)
6 | C=CC(=O)N1CC2(CCN(c3cc(OC)c(Cl)c(-c4c(C)ccc5[nH]ncc45)c3C#N)CC2)C1 [Compound I-132, 6-(2-acryloyl-2,7-diazaspiro[3.5]nonan-7-yl)-3-chloro-4-methoxy-2-(5-methyl-1H-indazol-4-yl)benzonitrile] | + (+ indicates binding activity greater than 0% and up to 50%)
7 | C=CC(=O)N1CC2(CCN(c3cc(NCCc4ccccn4)c(F)c(-c4c(C)ccc5[nH]ncc45)c3C#N)CC2)C1 [Compound I-133, 6-(2-acryloyl-2,7-diazaspiro[3.5]nonan-7-yl)-3-fluoro-2-(5-methyl-1H-indazol-4-yl)-4-((2-(pyridin-2-yl)ethyl)amino) benzonitrile] | + (+ indicates binding activity greater than 0% and up to 50%)

Same assay, conditions: tested at a concentration of 8 μM

Row | SMILES | Bind %
8 | C=CC(=O)N1CC2(CCN(c3cccc(-c4c(C)ccc5[nH]ncc45)c3C#N)C2)C1C (stereo not shown) [Compound I-126, 2-(2-acryloyl-1-methyl-2,6-diazaspiro[3.4]octan-6-yl)-6-(5-methyl-1H-indazol-4-yl)benzonitrile] | + (+ indicates binding activity greater than 0% and up to 50%)
9 | C=CC(=O)N1CC2(CCN(c3cc(OCc4ccccn4)cc(-c4c(C)ccc5[nH]ncc45)c3C#N)C2)C1C (stereo not shown) [Compound I-129, 2-(2-acryloyl-1-methyl-2,6-diazaspiro[3.4]octan-6-yl)-6-(5-methyl-1H-indazol-4-yl)-4-(pyridin-2-ylmethoxy) benzonitrile] | ++ (++ indicates binding activity from 50 to 75%)
10 | C=CC(=O)N1CC2(CCN(c3ccc(F)c(-c4c(C)ccc5[nH]ncc45)c3C#N)C2)C1C (stereo not shown) [Compound I-134, 6-(2-acryloyl-1-methyl-2,6-diazaspiro[3.4]octan-6-yl)-3-fluoro-2-(5-methyl-1H-indazol-4-yl)benzonitrile] | ++ (++ indicates binding activity from 50 to 75%)
